According to ChEMBL document CHEMBL1123364, “Selective thromboxane synthetase inhibitors. 4. 2-(1H-imidazol-1-ylmethyl) carboxylic acids of benzo[b]furan, benzo[b]thiophene, indole, and naphthalene” (J Med Chem, 1986):

Experiments:
Cyclooxygenase = target: T1, Cyclooxygenase (Rattus norvegicus, UniProt P35355+Q63921); test: Inhibition of cyclooxygenase from RBL-1 cells.; format: cell-based
T1 sequence (P35355 whole entry): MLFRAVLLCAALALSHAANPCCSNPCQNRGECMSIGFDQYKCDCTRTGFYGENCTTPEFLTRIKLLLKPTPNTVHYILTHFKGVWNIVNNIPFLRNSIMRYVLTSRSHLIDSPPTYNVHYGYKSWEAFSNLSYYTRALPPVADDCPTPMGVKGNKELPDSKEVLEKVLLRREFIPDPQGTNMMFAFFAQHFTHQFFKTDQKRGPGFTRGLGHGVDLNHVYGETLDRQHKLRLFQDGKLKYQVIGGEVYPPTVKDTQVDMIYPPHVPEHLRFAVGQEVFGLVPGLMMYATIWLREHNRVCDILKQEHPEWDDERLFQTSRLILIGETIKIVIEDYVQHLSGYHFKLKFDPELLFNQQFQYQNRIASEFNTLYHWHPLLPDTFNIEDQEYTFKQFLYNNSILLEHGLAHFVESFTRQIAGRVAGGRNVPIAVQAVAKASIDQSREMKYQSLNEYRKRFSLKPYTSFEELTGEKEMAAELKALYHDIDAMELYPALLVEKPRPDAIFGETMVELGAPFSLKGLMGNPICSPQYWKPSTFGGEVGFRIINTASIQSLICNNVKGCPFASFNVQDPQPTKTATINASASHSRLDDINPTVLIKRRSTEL
T1 sequence (Q63921 whole entry): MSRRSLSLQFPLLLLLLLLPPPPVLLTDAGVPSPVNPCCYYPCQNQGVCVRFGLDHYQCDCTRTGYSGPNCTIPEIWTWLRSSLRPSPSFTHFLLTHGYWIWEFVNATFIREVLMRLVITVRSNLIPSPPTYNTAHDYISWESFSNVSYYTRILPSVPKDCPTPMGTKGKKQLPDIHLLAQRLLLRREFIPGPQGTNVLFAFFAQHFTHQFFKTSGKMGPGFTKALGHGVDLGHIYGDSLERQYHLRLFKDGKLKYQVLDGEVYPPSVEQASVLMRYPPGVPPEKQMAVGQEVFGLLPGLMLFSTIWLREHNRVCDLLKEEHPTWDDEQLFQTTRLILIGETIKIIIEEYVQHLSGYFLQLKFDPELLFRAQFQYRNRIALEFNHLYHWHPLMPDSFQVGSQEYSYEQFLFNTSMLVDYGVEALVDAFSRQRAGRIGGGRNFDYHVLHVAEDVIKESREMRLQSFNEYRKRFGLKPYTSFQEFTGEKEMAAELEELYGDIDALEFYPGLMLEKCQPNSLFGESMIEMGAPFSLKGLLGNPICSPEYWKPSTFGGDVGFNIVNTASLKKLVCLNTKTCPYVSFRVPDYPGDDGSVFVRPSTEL

Thromboxane-A synthase = target: T2, Thromboxane-A synthase (Homo sapiens, UniProt P24557); test: Inhibition of TXA2 synthetase from human platelets
T2 sequence (P24557 whole entry): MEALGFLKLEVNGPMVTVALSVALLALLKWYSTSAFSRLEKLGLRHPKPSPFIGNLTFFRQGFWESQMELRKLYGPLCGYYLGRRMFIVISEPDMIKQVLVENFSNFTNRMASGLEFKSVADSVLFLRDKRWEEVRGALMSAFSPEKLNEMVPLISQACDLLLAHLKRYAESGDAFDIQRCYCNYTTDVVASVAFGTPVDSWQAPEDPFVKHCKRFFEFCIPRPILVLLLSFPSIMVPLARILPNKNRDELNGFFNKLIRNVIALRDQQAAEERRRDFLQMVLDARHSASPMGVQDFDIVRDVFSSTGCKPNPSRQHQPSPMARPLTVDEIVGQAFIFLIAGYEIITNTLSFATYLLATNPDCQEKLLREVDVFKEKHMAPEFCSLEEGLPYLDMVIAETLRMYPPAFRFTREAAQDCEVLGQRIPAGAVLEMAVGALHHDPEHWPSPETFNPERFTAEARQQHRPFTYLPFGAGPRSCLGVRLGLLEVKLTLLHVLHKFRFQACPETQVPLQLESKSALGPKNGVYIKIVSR

[1] = target: T3, Cytochrome P450 11B1, mitochondrial (Rattus norvegicus, UniProt P15393); test: Inhibition of rat adrenal 11-beta-hydroxylase
T3 sequence (P15393 whole entry): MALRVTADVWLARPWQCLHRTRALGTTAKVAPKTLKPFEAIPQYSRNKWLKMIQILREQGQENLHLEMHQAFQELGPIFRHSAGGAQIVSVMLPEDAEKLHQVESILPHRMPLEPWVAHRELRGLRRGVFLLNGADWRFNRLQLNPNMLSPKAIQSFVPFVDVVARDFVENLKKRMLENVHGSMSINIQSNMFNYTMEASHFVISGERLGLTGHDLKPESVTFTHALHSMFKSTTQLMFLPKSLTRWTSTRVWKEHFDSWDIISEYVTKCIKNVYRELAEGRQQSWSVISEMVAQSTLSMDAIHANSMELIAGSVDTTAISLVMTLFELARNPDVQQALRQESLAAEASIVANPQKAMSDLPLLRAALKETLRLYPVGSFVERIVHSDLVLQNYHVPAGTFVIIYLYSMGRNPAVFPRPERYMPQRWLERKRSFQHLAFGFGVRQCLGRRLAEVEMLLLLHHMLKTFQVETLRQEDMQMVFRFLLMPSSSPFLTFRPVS

[2] = Ionisation constant in presence of acid; format: ADME
[3] = Ionisation constant in presence of base; format: ADME

SMILES | IC50 (Cyclooxygenase) [M] | IC50 (Thromboxane-A synthase) [nM] | IC50 [1] [nM] | pKa [2] | pKa [3]
O=C(O)c1ccc2c(Cl)c(Cn3ccnc3)sc2c1 | > 0.0002 | 40 |  |  | 
O=C(O)c1ccc(OCCn2ccnc2)cc1 [DAZOXIBEN] |  |  | > 100000 |  | 
Cc1c(Cn2ccnc2)n(C)c2ccc(C(=O)O)cc12 | > 0.0002 | 32 |  | 4.08 | 6.32
O=C(O)c1ccc2cc(Cn3ccnc3)ccc2c1 |  | 34 |  |  | 
CSc1c(Cn2ccnc2)sc2ccc(C(=O)O)cc12 |  | 43 |  |  | 
O=C(O)c1ccc2sc(Cn3ccnc3)c(Br)c2c1 |  | 27 | > 100000 |  | 
O=C(O)c1ccc2sc(Cn3ccnc3)cc2c1 | > 0.0002 | 15 | > 100000 | 3.9 | 6.34
O=C(O)c1cccc2cc(Cn3ccnc3)ccc12 |  | 71 |  |  | 

Next, values leading:

IC50 (Cyclooxygenase) [M] | IC50 (Thromboxane-A synthase) [nM] | IC50 [1] [nM] | pKa [2] | pKa [3] | SMILES
> 0.0002 | 31 | > 100000 |  |  | O=C(O)c1ccc2oc(Cn3ccnc3)c(Cl)c2c1
> 0.0002 | 34 | 100000 | 3.91 | 6.08 | Cc1c(Cn2ccnc2)oc2ccc(C(=O)O)cc12
> 0.0002 | 17 | > 100000 | 3.82 | 6.58 | Cc1c(Cn2ccnc2)sc2ccc(C(=O)O)cc12
 | 12 |  |  |  | O=C(O)c1ccc2oc(Cn3ccnc3)cc2c1
> 0.0002 | 18 |  |  |  | Cc1c(Cn2ccnc2)sc2cc(C(=O)O)ccc12
> 0.0002 | 22 |  |  |  | O=C(O)c1ccc2sc(Cn3ccnc3)c(Cl)c2c1
 | 37 |  |  |  | Cc1c(Cn2ccnc2)[nH]c2ccc(C(=O)O)cc12
 | 30 |  |  |  | O=C(O)c1ccc2oc(Cn3ccnc3)c(Br)c2c1
